Assay results as given in publication PMC13503280, “A pharmacological modality to sequester homomeric proteins” (Nature Chemical Biology, 2026).

Tests used:
[1] = target: T1, LDHA (Homo sapiens, UniProt P00338); test: Immunostaining of LDHA in U2OS cells; type: cell-based; parameters: endogenous in cells; host or cells: U2OS (ATCC HTB-96); settings: 5µM, 20 hours
Experimental: For spinning disk confocal microscopy, cells were allowed to adhere to a 14-mm glass-bottom plate (MatTek P35G-1.5-14-C), followed by fixation with 3.7% formaldehyde for 5 min and permeabilization with 0.1% Triton X-100 for 10 min. The cells were then blocked with 5% BSA for 60 min at room temperature. Cells were stained with primary antibody, at a concentration of 1:100, for 3 h at room temperature and were then subjected to a secondary antibody conjugated to Alexa Fluor, at a concentration of 1:100–500, for 1 h at room temperature. Lastly, cells were also stained with DAPI for 10 min at room temperature.

[2] = target: T1, LDHA; test: DLS of recombinant LDHA; type: biochemical; parameters: The gene encoding full-length WT human LDHA was cloned into pET28; His6 tag followed by a tobacco etch virus protease cleavage site (N); made in house; host or cells: Escherichia coli BL21(DE3); settings: room temperature, over time
Experimental: (§1) DLS samples were prepared in the respective protein’s elution buffer, to which 0.01% Tween was added, along with the compound from a DMSO stock to obtain a final DMSO concentration of 2%. Samples were prepared at room temperature and measured at a constant temperature of 25 °C. All samples were passed through 0.1-μm filters and then placed in a clear-bottom black 384-well plate. DLS data were recorded using a DynaproPlate Reader III (Wyatt Technology). Data were processed with the supplied DYNAMICS software.

[3] = target: T2, recombinant BCL6 BTB domain (Homo sapiens, UniProt P41182); test: Intact protein LC–MS labeling of BCL6 BTB domain; type: binding; settings: 2 μM protein, 10 μM compound, incubation 90 min
T2 construct: The BCL6 BTB domain (5–129) was cloned into the pET28-bdSumo vector; His–bdSumo (N, cleaved yes); made in house; host or cells: E. coli BL21(DE3) (as described for Keap1 BTB)
From the text: A covalent inhibitor of BCL6 that irreversibly binds a tyrosine residue in the BTB domain dimeric interface was previously reported. […] Importantly, the linker had to be long enough to minimize potential steric clashes between bridged homodimers yet short enough to forbid intramolecular binding of subunits from the same homodimer.
Extended Data Fig. 1 SAR of BCL6 targeting PINCHs. a. […] Representative results from 3 independent experiments, and c. These compounds’ structures. Source data

[4] = target: T3, BCL6(1–275)–GFP (Homo sapiens, UniProt P41182); test: BCL6(1–275)–GFP puncta in HEK 293 cells; type: cell-based; settings: HEK 293 cells overexpressing BCL6(1–275)–GFP
T3 construct: HEK 293 cells expressing GFP fused to BCL6 (residues 1–275); host or cells: HEK 293
Experimental: Automatic aggregate segmentation was conducted using the surface module with manual threshold fixed for all images of the same experiment (default 2-pixel smoothing, background subtraction with 0.9-μm largest sphere, morphological split with 0.5-μm seed point diameter). Analysis was conducted per cell by manually selecting regions covering the individual cell and not overlapping with neighboring cells.

[5] = test system: HEK 293 cells; test: Viability measurements, HEK 293 cells; type: cell-based; settings: HEK 293 cells (lack BCL6 expression), 72 h
Experimental: (§2) Cells were seeded in a transparent-bottom, black 96-well plate, at 15,000 cells per well in sixfold replications. in 90 µl of medium and left to adhere for at least 4 h. The cells were then treated with the respective compound by adding 10 µl of medium–-compound mixture for a final volume of 100 µl in each well. Cell-Titer blue reagent was used to measure viability according to the manufacturer’s instructions. Plate reader measurements were performed on a Tecan Spark Control 10 M fluorescence system.

[6] = target: T4, BCL6 (Homo sapiens, UniProt P41182); test: WB of BCL6 levels in Mino cells (soluble/insoluble fraction); type: cell-based; settings: 20 h incubation
T4 construct: in Mino cells, as BCL6 is mostly expressed in B cells; endogenous in cells; host or cells: Mino (ATCC CRL-3000)
Experimental: Cells were incubated with DMSO at 0.1% or with compound in concentrations ranging 10–20,000 nM for 20 h unless indicated differently. […] Then, 20–40 μg of each sample was loaded and run on an SDS–PAGE gel, before transferring onto a nitrocellulose membrane using a Trans-Blot Turbo system (Bio-Rad) and blocking using a 5% BSA in TBS-T (w/v) solution for 1 h at room temperature. […] Imaging of the chemiluminescence signal was performed using a ChemiDoc XRS+ instrument (Bio-Rad). Primary band quantifications were normalized against β-actin bands.

[7] = test system: c-Myc; test: WB of c-Myc protein levels in Mino cells; type: cell-based; settings: 20 h
Experimental: (§3) Cells were incubated with DMSO at 0.1% or with compound in concentrations ranging 10–20,000 nM for 20 h unless indicated differently. Following incubation, lysis was performed in RIPA buffer and the samples were measured for total protein quantification by BCA assay (Thermo Fisher Scientific, 23225). Then, 20–40 μg of each sample was loaded and run on an SDS–PAGE gel, before transferring onto a nitrocellulose membrane using a Trans-Blot Turbo system (Bio-Rad) and blocking using a 5% BSA in TBS-T (w/v) solution for 1 h at room temperature. Incubation with primary antibodies (mouse anti-BCL-6 (sc-7388, Santa Cruz, 1:500; overnight at 4 °C), mouse anti-Keap1 (sc-365626, Santa Cruz, 1:500; overnight at 4 °C), rabbit anti-LDHA (4H18L6, Thermo Fisher, 1:1,000; overnight at 4 °C), mouse anti-NQO2 (sc-271665, Santa Cruz, 1:500; overnight at 4 °C), rabbit anti-c-Myc (5605, Cell Signaling, 1:1,000; overnight at 4 °C) and mouse anti-β-actin (3700, Cell Signaling, 1:1,000; 1 h at room temperature) was performed and then the membranes were washed and incubated with a horseradish-peroxidase-conjugated secondary antibody (mouse 7076/rabbit 7074, Cell Signaling) at room temperature for 1 h. Imaging of the chemiluminescence signal was performed using a ChemiDoc XRS+ instrument (Bio-Rad). Primary band quantifications were normalized against β-actin bands.

[8] = test system: Mino cells; test: Viability measurements, Mino cells; type: cell-based; settings: Mino cells, 72 h
Experimental: as §2

[9] = test system: Ramos cells; test: Viability measurements, Ramos cells; type: cell-based; settings: Ramos cells, 72 h
Experimental: as §2

[10] = target: T5, Keap1 and BCL6 (Homo sapiens, UniProt P41182+Q14145); test: WB of Keap1 and BCL6 in OCI-AML2 cells (hetero-PINCH); type: cell-based; parameters: endogenous in cells; host or cells: OCI-AML2; settings: 20 h
Experimental: as §3

[11] = target: Keap1 (Homo sapiens, UniProt Q14145); test: WB of Keap1 in HEK 293 cells (hetero-PINCH); type: cell-based; parameters: endogenous in cells; host or cells: HEK 293 (ATCC CRL-1573); settings: HEK 293 cells (does not express BCL6), 20 h
Experimental: as §3

[12] = target: T5, Keap1 and BCL6; test: WB of Keap1 and BCL6 in Mino cells (hetero-PINCH); type: cell-based; parameters: Mino cells that express high levels of BCL6; endogenous in cells; host or cells: Mino; OCI-AML2; settings: 20 h
Experimental: as §3

[13] = test system: NQO1 expression; test: qPCR for NQO1 expression in OCI-AML2 cells after washout; type: cell-based; settings: OCI-AML2, 250 nM 20 h, from 48 h after treatment
Experimental: Cells were treated with either DMSO or compound at 250 nM, followed by washing out the treated medium after 20 h and reseeding in fresh medium. Cells were then collected at several time points post washout. Total RNA was extracted using RNeasy mini kit (Qiagen, 74104). […] PCR amplification was carried out in Step-One Plus thermocycler (Applied Biosystems). Relative quantification was performed using standard curves. GAPDH was used for normalization.

[14] = target: T6, recombinant Keap1 BTB (Homo sapiens, UniProt Q14145, S172A); test: DLS of recombinant Keap1 BTB domain; type: biochemical; settings: 50 μM Keap1 BTB, 50 μM compound, room temperature, over time
T6 construct: The Keap1 BTB domain (48–180) encoding the single substitution S172A was cloned into pET28-bdSumo vector; His–bdSumo (N, cleaved yes); made in house; host or cells: E. coli BL21(DE3)
Experimental: as §1

[15] = test system: OCI-AML2 cells; test: Viability measurements, OCI-AML2 cells; type: cell-based; settings: OCI-AML2, 72 h
Experimental: as §2

[16] = test system: U2OS cells; test: Viability measurements, U2OS cells; type: cell-based; settings: 72 h
Experimental: as §2

[17] = test system: Nrf2; test: WB of Nrf2; type: cell-based; settings: U2OS cells, 20 h compound treatment
[18] = target: T7, recombinant NQO2 (Homo sapiens, UniProt P16083); test: DLS of recombinant NQO2; type: biochemical; settings: recombinant NQO2, room temperature, over time
T7 construct: made in house; host or cells: E. coli BL21(DE3)
T7 sequence (P16083 1-231): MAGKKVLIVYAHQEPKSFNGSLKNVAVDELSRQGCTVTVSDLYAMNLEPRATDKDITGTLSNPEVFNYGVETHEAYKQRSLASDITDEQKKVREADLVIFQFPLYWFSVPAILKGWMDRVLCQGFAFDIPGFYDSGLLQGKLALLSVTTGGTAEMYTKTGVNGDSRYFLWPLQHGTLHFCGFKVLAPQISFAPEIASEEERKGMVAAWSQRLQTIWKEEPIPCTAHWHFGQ
Experimental: as §1

Chain of Keap1 (Q14145 whole entry): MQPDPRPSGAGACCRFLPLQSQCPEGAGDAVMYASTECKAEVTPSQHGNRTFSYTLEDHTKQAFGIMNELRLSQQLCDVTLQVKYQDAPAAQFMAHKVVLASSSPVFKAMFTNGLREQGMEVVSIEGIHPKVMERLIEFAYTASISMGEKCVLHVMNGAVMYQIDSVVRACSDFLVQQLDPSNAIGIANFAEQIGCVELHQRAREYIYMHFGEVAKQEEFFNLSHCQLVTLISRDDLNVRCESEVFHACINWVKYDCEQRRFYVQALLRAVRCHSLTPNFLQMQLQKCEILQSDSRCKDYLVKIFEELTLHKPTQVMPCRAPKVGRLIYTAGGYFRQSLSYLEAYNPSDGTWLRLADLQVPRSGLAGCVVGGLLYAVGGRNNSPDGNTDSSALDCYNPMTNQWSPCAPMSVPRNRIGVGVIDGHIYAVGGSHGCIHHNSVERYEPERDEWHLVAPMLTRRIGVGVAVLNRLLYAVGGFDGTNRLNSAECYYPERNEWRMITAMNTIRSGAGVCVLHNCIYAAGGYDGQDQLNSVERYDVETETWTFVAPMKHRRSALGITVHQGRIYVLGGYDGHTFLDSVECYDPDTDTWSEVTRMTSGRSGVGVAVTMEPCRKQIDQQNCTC
T6 sequence (Q14145 48-180 S172A): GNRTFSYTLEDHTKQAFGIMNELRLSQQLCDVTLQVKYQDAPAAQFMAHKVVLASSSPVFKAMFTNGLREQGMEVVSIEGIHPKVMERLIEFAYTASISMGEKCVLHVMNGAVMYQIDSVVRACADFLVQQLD

Cc1nc2ccc(NC(=O)CC(NC(=O)CCCc3ccc(CC(C(=O)O)C(=O)O)cc3)C(=O)NCCOCCOCCOCCOCCNC(=O)C(CC(=O)Nc3ccc4nc(C)sc4c3)NC(=O)CCCc3ccc(CC(C(=O)O)C(=O)O)cc3)cc2s1 (stereo not drawn) [OS-47B]
LDHA localization (immunostaining) [1]: no effect on LDHA localization
formation of larger species (DLS) [2]: formation of larger species over time

CNC(=O)COc1cc2cc(Nc3cc(NCc4cccc(S(=O)(=O)F)c4)ccc3Cl)cc(OC)c2n(C)c1=O [w8001]
labeling of recombinant BCL6 BTB domain by intact protein LC–MS [3]: 100%
BCL6–GFP puncta formation [4]: no such puncta
effect on viability [5]: no compound affected the viability

CNC(=O)COc1cc2cc(Nc3nc(N4C[C@H](C)C[C@H](C)C4)ncc3Cl)ccc2n(C)c1=O [BI-3802, reference compound]
BCL6 in soluble and insoluble fraction (WB) [6]: no accumulation in the insoluble fraction
c-Myc protein levels (WB) [7]: no such effect on c-Myc
effect on viability [8]: no viability effect
effect on viability [9]: no viability effect
effect on viability [5]: no compound affected the viability

COc1cc(Nc2cc(NCc3cccc(S(=O)(=O)F)c3)ccc2Cl)cc2cc(OCC(=O)NCCOCCOCCOCCOCCOCCOCCOCCOCCOCCOCCOCCOCCNC(=O)[C@]34CCC(C)(C)C[C@H]3[C@H]3C(=O)C=C5[C@@]6(C)C=C(C#N)C(=O)C(C)(C)[C@@H]6CC[C@@]5(C)[C@]3(C)CC4)c(=O)n(C)c12 [EL230]
Keap1 and BCL6 levels (WB) [10]: Keap1 and BCL6 were downregulated simultaneously
Keap1 level (WB) [11]: Keap1 remained unchanged
Keap1 and BCL6 levels in soluble/insoluble phase (WB) [12]: reduction in both Keap1 and BCL6 levels in the soluble phase

Bardoxolone [BDX, reference compound]
duration of NQO1 upregulation after washout [13]: returned closer to its original level
formation of large species (DLS) [14]: did not appear
IC50 [15]: 1000 nM
IC50 [16]: 723 nM
Nrf2 levels (WB) [17]: Nrf2 upregulation

CC1(C)CC[C@]2(C(=O)NCCOCCOCCOCCOCCOCCOCCOCCOCCOCCOCCOCCOCCOCCN)CC[C@]3(C)[C@H](C(=O)C=C4[C@@]5(C)C=C(C#N)C(=O)C(C)(C)[C@@H]5CC[C@]43C)[C@@H]2C1 [compound 24]
Keap1 and BCL6 levels in soluble/insoluble phase (WB) [12]: did not induce such effects on either target

COc1cc(Nc2cc(NCc3cccc(S(=O)(=O)F)c3)ccc2Cl)cc2cc(OCC(=O)NCCOCCOCCOCCOCCOCCOCCOCCOCCOCCOCCOCCOCCOCCN)c(=O)n(C)c12 [compound 23]
Keap1 and BCL6 levels in soluble/insoluble phase (WB) [12]: did not induce such effects on either target

Cc1ccc(-c2cn3cccc(C)c3n2)cc1S(=O)(=O)N1CCN(C(=O)COCCOCCOCC(=O)N2CCN(S(=O)(=O)c3cc(-c4cn5cccc(C)c5n4)ccc3C)CC2)CC1 [EL246]
formation of larger species (DLS) [18]: ability to form larger species in solution
